In assay [1] the test system is HNSCC Cal27 tongue-orthotopic tumors. The assay can be described thus: Tongue-orthotopic tumor-bearing NSG mouse model. It is filed as in vivo, NSG mice. As to conditions: for Median survival time: Tongue orthotopic model, fusion toxin or DT390 50 μg/kg IP, erlotinib 20 mg/kg gavage, once daily for 10 days from day 4; for tongue SCC tumor volume versus mono-EGF-IT and DT390 groups: second cohort, euthanized 8 days after tumor cell inoculation. Here is the method:
FIGS. 7A-7C presents the data from two animal studies of in vivo efficacy analysis of the human EGF fusion toxins against tongue squamous cell carcinomas (SCCs) in NSG mice. FIG. 7A presents the data from in vivo efficacy analysis of the human EGF fusion toxins using human EGFR-positive HNSCC Cal27 tongue-orthotopic tumor-bearing NSG mouse model. Eight million human EGFR-positive HNSCC Cal27 cells were injected into the tongue on day 0. Mice were injected intraperitoneally (IP) with the EGF fusion toxin or DT390 at 50 μg/kg, starting on day 4, once daily for 10 consecutive days. […] The schedule of the fusion toxin and tumor cell injection is pictured in the schematic below the survival curve. The vertical arrows indicate the days on which the tumor cells or the fusion toxins were injected. *P<0.05; **P<0.01; ***P<0.001; ****P<0.0001; ns: not significant.
FIG. 7B presents the data from a further in vivo efficacy analysis of the human EGF fusion toxins. […] The mice were euthanized on day 8 after tumor cell injection when the first mouse in the DT390 group reached the end point. The photograph depicts tongue squamous cell carcinomas (SCCs) (circled by the black dotted lines). Scale bar: 1 cm. FIG. 7C presents the FIG. 7B tumor volume comparison of the treatment groups. *P<0.05; **P<0.01
(§1) HNSCC tumor cells were injected via the following routes: 1) Flank-xenograft solid tumor model: eight million human HNSCC Cal27 tumor cells were subcutaneously injected into the right flank at day 0. The tumor-bearing mice were randomly divided into the four experimental groups when the tumors were palpable at day 3. The tumor volume was measured using digital vernier calipers every 3 days and calculated according to the formula: volume (mm^3)=(length×width×width)/2. 2) Tongue-orthotopic solid tumor model: eight million human HNSCC Cal27 tumor cells in 50 μl DMEM were injected into the tongue at day 0 following isoflurane anesthesia and the tumor-bearing mice were randomly divided into the planned four experimental groups at day 3. 3) Experimental metastasis model: one million human HNSCC Cal27 tumor cells in 200 μl DMEM were intravenously injected at day 0 via tail vein and the tumor-bearing mice were randomly divided into the four experimental groups at day 3.
(§2) Mono-EGF-IT (mEGF-IT), bEGF-IT, or DT390 was intraperitoneally injected (IP) starting at day 4 at 50 μg/kg, once daily for 10 consecutive days. […] The injected animals were observed daily for signs and symptoms of illness and scored at least twice weekly based on the parameters as previously reported (Peraino et al. (2013), J. Immunol. Methods 398-399, 33-43, which is hereby incorporated by reference in its entirety; Wang et al., 2015). The animals were humanely euthanized when the score exceeded the limit or the animal lost more than 15% of its pre-injection body weight. In addition, to assess whether the fusion toxins are toxic to the animals, NSG mice injected with the fusion toxins only were also included as control.
To assess the in vivo efficacy of the human EGF fusion toxins to the xenograft tumors in the head and neck area, a tongue-orthotopic tumor-bearing NSG mouse model was used as a second efficacy model. Eight million HNSCC Cal27 cells were injected into the tongue at day 0. The EGF fusion toxins were injected intraperitoneally (IP) starting on day 4 at 50 μg/kg daily for 10 consecutive days. Since the resulting tongue-orthotopic tumors severely affected the animal's eating and drinking, animals were euthanized earlier. Therefore, the median survival prolongation was not as impressive as that observed in the flank-xenograft solid tumor-bearing NSG mouse model. […] To further characterize the effect of the EGF fusion toxins on tumor volume, the orthotopic tongue SCC model study was repeated, and the mice were euthanized 8 days after tumor cell inoculation.

For assay [2], the system named is HNSCC Cal27 cells injected intravenously (lung metastases). The assay can be described thus: Experimental lung metastasis NSG mouse model. The format is in vivo, NSG mice. The following applies: for Median survival time: Lung metastasis model, fusion toxin or DT390 50 μg/kg IP, erlotinib 20 mg/kg gavage, once daily for 10 days from day 4; for number of metastases in the lungs: second cohort, euthanized 10 days after tumor cell inoculation. Here is the method: FIG. 8A-C presents data from in vivo efficacy analysis of the human EGF fusion toxins using an experimental lung metastasis NSG mouse model. FIG. 8A presents data from a first animal study for survival curve analysis. NSG mice were IV injected with one million human EGFR^+ HNSCC Cal27 cells on day 0. Mice were injected intraperitoneally (IP) with the EGF fusion toxin or DT390 at 50 μg/kg, once daily for 10 consecutive days starting on day 4 after the tumor cell injection. […] The schedule of the fusion toxin and tumor cell injection is pictured in the schematic below the survival curve. The vertical arrows indicate the days on which the tumor cells or the fusion toxins were injected. *P<0.05; **P<0.01; ***P<0.001; ****P<0.0001. The P-values for the survival curves were calculated using the Mantel-Cox log-rank test (GraphPad Prism9.0).
FIGS. 8B and C present data from a second animal study for a pathology analysis. […] The mice were euthanized on day 10 after tumor cell injection when the first mouse in the DT390 group reached the end point. FIG. 8B presents H&E pictures of lung metastases. Metastases are indicated in the upper panels by black arrowheads. Scale bar: 500 μm. The lower panels are higher magnification pictures of the area in black rectangles in the upper panels. […] Error bars indicate standard deviation (SD).
as §1, §2
The third in vivo efficacy model was an experimental metastasis model. One million of HNSCC Cal27 tumor cells were intravenously injected via the tail vein of NSG mice at day 0. The EGF fusion toxins were injected intraperitoneally (IP) starting on day 4 at 50 μg/kg daily for 10 consecutive days. […] To further assess the effects of the fusion toxins on metastasis, the experimental metastasis study was repeated with a second cohort of NSG mice, and all mice were euthanized 10 days after tumor cell inoculation, when the first mouse in the DT390 group reached the end point. The data are depicted in FIGS. 8B and C.

Entries after “also recorded” stand apart in the source; their conditions may differ.

Data on two compounds can be found in US20230097992A1, “BIVALENT EGF FUSION TOXINS” (The Regents of the University of Colorado, a body corporate, priority 2020, published 2023).

For the compound `C#Cc1cccc(Nc2ncnc3cc(OCCOC)c(OCCOC)cc23)c1` [Erlotinib], in assay [1], the Median survival time came out at 16.5 days; the “tongue SCC tumor volume versus mono-EGF-IT and DT390 groups” value is on record as “significantly smaller”. Also, in assay [2], the Median survival time came out at 30 days and the “number of metastases in the lungs” value is “reduced compared with the DT390-negative control group”.

For “Bi-EGF IT: DT390 joined by G4S to two human EGF domains linked by (G4S)3, C-terminal 6×His tag; SEQ ID NO: 10”, in assay [1], the Median survival time was 15 days; the “tongue SCC tumor volume versus mono-EGF-IT and DT390 groups” value is listed as “significantly smaller”. In assay [2], the Median survival time turned out to be 38 days and the “number of metastases in the lungs” value was “reduced compared with the DT390-negative control group; also recorded: reduction was greater in the bi-EGF-IT group than in the mono-EGF-IT group”.
